Source: patent US20260049072A1, “HETEROCYCLIC COMPOUND FOR INDUCING DEGRADATION OF MUTANT KRAS PROTEIN” (Astellas Pharma Inc., priority 2022, published 2026)

What was measured:
RAS G12V = molecular target: T1, RAS G12V (Homo sapiens, UniProt P01116, G12V); assay: RAS G12V degradation activity, Cell ELISA, PA-TU-8902; assay type: cell-based; conditions: PA-TU-8902 cells, 24 hours, 100% = Example compound 17 at 1 μM; read-out: DC50 (RAS G12V 50% degradation value)
T1 construct: host or cells: PA-TU-8902 human pancreatic cancer cells
T1 sequence (P01116 1-188 isoform P01116-2 G12V): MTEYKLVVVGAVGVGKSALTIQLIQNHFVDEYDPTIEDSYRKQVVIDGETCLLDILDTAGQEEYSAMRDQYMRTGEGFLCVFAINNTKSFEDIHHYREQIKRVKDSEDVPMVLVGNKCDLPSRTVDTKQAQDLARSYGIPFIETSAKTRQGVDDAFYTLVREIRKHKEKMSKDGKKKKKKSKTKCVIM
Method: Test Example 1-1: Evaluation of RAS G12V Degradation Activity on Human KRAS G12V Mutant-Positive Pancreatic Cancer Line PA-TU-8902
The RAS G12V degradation activities of subject compounds were evaluated by measuring the expression levels of RAS G12V by a Cell ELISA method.
PA-TU-8902 cells (DSMZ, ACC 179) were seeded at 36 μL per well on a 384-well plate (from Greiner bio-one) to give 1.5×10^4 cells per well. As for the cell culture conditions, DMEM medium (from Sigma-Aldrich) containing 10% fetal bovine serum (from Cytiva) was used in the presence of 5% CO2 at 37° C.
(§1) The next day, the subject compounds (10 points having final concentrations in the range of 3 μM to 0.1 nM), Example compound 17 of a final concentration of 1 μM as a positive control and dimethyl sulfoxide (DMSO), which was the solvent for the subject compounds, as a negative control were diluted 100-fold with a fresh medium and were each added at 4 μL per well, followed by culturing for 24 hours.
The next day, the culture supernatant was removed, and a 4% paraformaldehyde phosphate buffer solution (from FUJIFILM Wako) was added at 20 μL per well. The plate was allowed to stand for 30 minutes at room temperature to thus immobilize the cells. Then, the supernatant was removed, and 0.1% Triton X-100 (from Amersham Biosciences)-containing Phosphate buffered saline (PBS) was added at 20 μL per well. After allowing the plate to stand at room temperature for 10 minutes, the supernatant was removed, and the wells were washed twice in total by adding PBS at 25 μL per well and removing the supernatant. The washing operations below were performed in the same manner. Next, the supernatant was removed, and 0.5% sodium dodecyl sulfate (SDS; from ThermoFisher Scientific)-containing PBS was added at 20 μL per well. After allowing the plate to stand at room temperature for 10 minutes, the plate was centrifuged to remove the supernatant. After washing with PBS, the supernatant was removed by centrifugation, and a blocking solution (PVDF Blocking Reagent for Can Get Signal; from TOYOBO) was added at 20 μL per well. After allowing the plate to stand for 30 minutes at room temperature, the supernatant was removed by centrifugation, and a solution obtained by diluting an anti-Ras (G12V Mutant Specific) antibody (Ras (G12V Mutant Specific) (D2H12) Rabbit mAb; from Cell Signaling Technology; 500-fold dilution) and an anti-3-actin antibody (Anti-beta Actin antibody; from Abcam; 5,000-fold dilution) with Can Get Signal Solution 2 (from TOYOBO) was added at 15 μL per well as primary antibodies. The plate was allowed to stand overnight at 4° C.
(§2) The next day, the supernatant was removed by centrifugation, and the plate was washed with PBS. The supernatant was removed by centrifugation, and a solution obtained by diluting an anti-rabbit IgG antibody (IRDye 800CW Goat anti-Rabbit IgG; from LI-COR Biosciences) and an anti-mouse IgG antibody (IRDye 680RD Donkey anti-Mouse IgG; from LI-COR Biosciences) 1,000-fold with Can Get Signal Solution 2 was added at 15 μL per well as secondary antibodies. After allowing the plate to stand at room temperature for an hour, the supernatant was removed by centrifugation, and the plate was washed with PBS. After removing the supernatant, the plate was dried as it was with air at room temperature for two hours or more, and the 700-nm and 800-nm fluorescent signals were measured with Aerius (from LI-COR Biosciences).
With the RAS G12V signaling value at the time of addition of DMSO corrected with the signaling value of 3-actin taken as 0% and with the RAS G12V signaling value at the time of addition of Example compound 17 of a final concentration of 1 μM taken as 100%, the RAS G12V degradation rates were calculated. The 50% degradation values (DC50) were calculated by Sigmoid-Emax model nonlinear regression analysis.

RAS G12D = molecular target: T2, RAS G12D (Homo sapiens, UniProt P01116, G12D); assay: RAS G12D degradation activity, Cell ELISA, AsPC-1; assay type: cell-based; conditions: AsPC-1 cells, 24 hours; read-out: DC50 (RAS G12D 50% degradation value)
T2 construct: host or cells: AsPC-1 human pancreatic cancer cells
T2 sequence (P01116 1-188 isoform P01116-2 G12D): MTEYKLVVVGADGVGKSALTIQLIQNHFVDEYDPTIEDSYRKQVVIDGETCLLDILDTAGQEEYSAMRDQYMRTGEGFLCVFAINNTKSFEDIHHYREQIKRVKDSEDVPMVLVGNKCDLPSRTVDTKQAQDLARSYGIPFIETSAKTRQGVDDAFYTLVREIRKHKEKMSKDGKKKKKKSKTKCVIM
Method: Test Example 1-2: Evaluation of RAS G12D Degradation Activity on Human KRAS G12D Mutant-Positive Pancreatic Cancer Line AsPC-1
The RAS G12D degradation activities of subject compounds were evaluated in the same manner as in Test Example 1-1 by measuring the expression levels of RAS G12D by a Cell ELISA method.
AsPC-1 cells (ATCC, CRL-1682) were seeded at 36 μL per well on a 384-well plate to give 2.0×10^4 cells per well. As for the cell culture conditions, RPMI-1640 medium (from Sigma-Aldrich) containing 10% fetal bovine serum was used in the presence of 5% CO2 at 37° C.
as §1, with “nM)” for “nM), Example compound 17 of a final concentration of 1 μM as a positive control”, “DMSO,” for “dimethyl sulfoxide (DMSO),”
The next day, the procedures from the immobilization of the cells to before the addition of the blocking solution were performed by the same methods as in Test Example 1-1. A blocking solution (Intercept Blocking Buffer; from LI-COR Biosciences) was added at 20 μL per well. After allowing the plate to stand for 30 minutes at room temperature, the supernatant was removed by centrifugation. A solution obtained by diluting an anti-R-actin antibody (1,000-fold dilution) with the blocking solution was added to the wells of the positive control as a primary antibody, and a solution obtained by diluting an anti-Ras (G12D Mutant Specific) antibody (Ras (G12D Mutant Specific) (D8H7) Rabbit mAb; from Cell Signaling Technology; 1,000-fold dilution) and an anti-3-actin antibody (1,000-fold dilution) with the blocking solution was added to the other wells as primary antibodies, each at 15 μL per well. The plate was allowed to stand overnight at 4° C.
as §2, with “antibody” for “antibody (IRDye 800CW Goat anti-Rabbit IgG; from LI-COR Biosciences)”, “antibody” for “antibody (IRDye 680RD Donkey anti-Mouse IgG; from LI-COR Biosciences)”, “the blocking solution” for “Can Get Signal Solution 2”, “Aerius.” for “Aerius (from LI-COR Biosciences).”
With the RAS G12D signaling value at the time of addition of DMSO corrected with the signaling value of β-actin taken as 0% and with the RAS G12D signaling value under the conditions of staining with the anti-β-actin antibody alone taken as 100%, the RAS G12D degradation rates were calculated. The 50% degradation values (DC50) were calculated by Sigmoid-Emax model nonlinear regression analysis.

DC50 (RAS G12V) [nM]	DC50 (RAS G12D) [nM]	Compound
18	5	CO[C@@H](C)COc1nc(NC2CN(C(=O)O[C@H]3C[C@@H](N(C)C)C3)C2)c2cc(C3CC3)c(-c3c(C)c(F)cc4[nH]ncc34)c(OCc3ccc(-c4cn([C@H](C(=O)N5C[C@H](O)C[C@H]5C(=O)N[C@@H](CO)c5ccc(-n6cncn6)cc5)C(C)C)nn4)cc3)c2n1 (atropisomer, axis not shown; (M)) [Example 2, (1s,3R)-3-(dimethylamino)cyclobutyl 3-({(7M)-6-cyclopropyl-7-(6-fluoro-5-methyl-1H-indazol-4-yl)-8-{[4-(1-{(2S)-1-[(2S,4R)-4-hydroxy-2({(1R)-2-hydroxy-1-[4-(1H-1,2,4-triazol-1-yl)phenyl]ethyl}carbamoyl)pyrrolidin-1-yl]-3-methyl-1-oxobutan-2-yl}-1H-1,2,3-triazol-4-yl)phenyl]methoxy}-2-[(2S)-2-methoxypropoxy]quinazolin-4-yl}amino)azetidine-1-carboxylate]
26	6	CO[C@@H](C)COc1cc(OC2CN(C(=O)N3CC(CN(C)C)C3)C2)c2cc(C3CC3)c(-c3c(C)c(F)cc4[nH]ncc34)c(OCc3ccc(-c4cn([C@H](C(=O)N5C[C@H](O)C[C@H]5C(=O)N[C@@H](CO)c5ccc(-n6cncn6)cc5)C(C)C)nn4)cc3)c2n1 (atropisomer, axis not shown; (M)) [Example 5, (4R)-1-[(2S)-2-(4-{4-[({(7M)-6-cyclopropyl-4-[(1-{3-[(dimethylamino)methyl]azetidine-1-carbonyl}azetidin-3-yl)oxy]-7-(6-fluoro-5-methyl-1H-indazol-4-yl)-2-[(2S)-2-methoxypropoxy]quinolin-8-yl}oxy)methyl]phenyl}-1H-1,2,3-triazol-1-yl)-3-methylbutanoyl]-4-hydroxy-N-{(1R)-2-hydroxy-1-[4-(1H-1,2,4-triazol-1-yl)phenyl]ethyl}-L-prolinamide]
22	5	CO[C@@H](C)COc1cc(OC2CN(C(=O)N3CC(CN(C)C)C3)C2)c2cc(C3CC3)c(-c3c(C)c(F)cc4[nH]ncc34)c(OCc3ccc(-c4cn([C@H](C(=O)N5C[C@H](O)C[C@H]5C(=O)N[C@@H](CO)c5ccc(-c6ocnc6C)cc5)C(C)C)nn4)cc3)c2n1 (atropisomer, axis not shown; (M)) [Example 6, (4R)-1-[(2S)-2-(4-{4-[({(7M)-6-cyclopropyl-4-[(1-{3-[(dimethylamino)methyl]azetidine-1-carbonyl}azetidin-3-yl)oxy]-7-(6-fluoro-5-methyl-1H-indazol-4-yl)-2-[(2S)-2-methoxypropoxy]quinolin-8-yl}oxy)methyl]phenyl}-1H-1,2,3-triazol-1-yl)-3-methylbutanoyl]-4-hydroxy-N-{(1R)-2-hydroxy-1-[4-(4-methyl-1,3-oxazol-5-yl)phenyl]ethyl}-L-prolinamide]
13	4	CO[C@@H](C)COc1nc(NC2CN(C(=O)O[C@H]3C[C@@H](N(C)C)C3)C2)c2cc(C3CC3)c(-c3c(C)c(F)cc4[nH]ncc34)c(OCc3ccc(-c4cn([C@H](C(=O)N5C[C@H](O)C[C@H]5C(=O)N[C@@H](CO)c5ccc(-c6scnc6C)cc5)C(C)C)nn4)cc3)c2n1 (atropisomer, axis not shown; (M)) [Example 11, (1s,3R)-3-(dimethylamino)cyclobutyl 3-({(7M)-6-cyclopropyl-7-(6-fluoro-5-methyl-1H-indazol-4-yl)-8-{[4-(1-{(2S)-1-[(2S,4R)-4-hydroxy-2-({(1R)-2-hydroxy-1-[4-(4-methyl-1,3-thiazol-5-yl)phenyl]ethyl}carbamoyl)pyrrolidin-1-yl]-3-methyl-1-oxobutan-2-yl}-1H-1,2,3-triazol-4-yl)phenyl]methoxy}-2-[(2S)-2-methoxypropoxy]quinazolin-4-yl}amino)azetidine-1-carboxylate]
